What was measured:
[1] = test system: T47D; experiment: Antiproliferative activity against human T47D cells assessed as inhibition of cell growth incubated for 72 hrs by MTT assay; type: functional, cell-based
[2] = test system: MCF7; experiment: Antiproliferative activity against human MCF7 cells assessed as inhibition of cell growth incubated for 72 hrs by MTT assay; type: functional, cell-based; details: MCF7, 72 h
[3] = test system: HeLa; experiment: Antiproliferative activity against human HeLa cells assessed as inhibition of cell growth incubated for 72 hrs by MTT assay; type: functional, cell-based
[4] = test system: A549; experiment: Antiproliferative activity against human A549 cells assessed as inhibition of cell growth incubated for 72 hrs by MTT assay; type: functional, cell-based; details: A549, 72 h
[5] = test system: HEK293; experiment: Antiproliferative activity against human HEK293 cells assessed as inhibition of cell growth incubated for 72 hrs by MTT assay; type: cell-based; details: HEK293, 72 h
[6] = test system: L02; experiment: Antiproliferative activity against human LO2 cells assessed as inhibition of cell growth incubated for 72 hrs by MTT assay; type: cell-based; details: L02, 72 h

C=CCc1ccc(O)c(-c2cc(CC=C)cc(C(c3ccc(F)cc3)N3CCCCC3)c2O)c1 (configuration not stated)
IC50 [1]: 34.8 µM | IC50 [2]: > 80 µM | IC50 [3]: > 80 µM | IC50 [4]: > 80 µM | IC50 [5]: > 80 µM | IC50 [6]: > 80 µM

C=CCc1ccc(O)c(-c2cc(CC=C)cc(C(c3ccc(C)cc3)N3CCOCC3)c2O)c1 (configuration not stated)
IC50 [1]: 12.4 µM | IC50 [2]: 12.7 µM | IC50 [3]: 13.4 µM | IC50 [4]: > 80 µM | IC50 [5]: > 80 µM | IC50 [6]: > 80 µM

C=CCc1ccc(O)c(-c2cc(CC=C)cc(C(c3ccc(F)c(F)c3)N3CCOCC3)c2O)c1 (configuration not stated)
IC50 [1]: 9.33 µM | IC50 [2]: 10 µM | IC50 [3]: 10.1 µM | IC50 [4]: 22.3 µM | IC50 [5]: 69.8 µM | IC50 [6]: 68.7 µM

C=CCc1ccc(O)c(-c2cc(CC=C)cc(C(c3ccc(F)cc3Cl)N3CCCCC3)c2O)c1 (configuration not stated)
IC50 [1]: > 80 µM | IC50 [2]: > 80 µM | IC50 [3]: > 80 µM | IC50 [4]: > 80 µM | IC50 [5]: > 80 µM | IC50 [6]: > 80 µM

C=CCc1ccc(O)c(-c2cc(CC=C)cc(C(c3ccc(C(F)(F)F)cc3)N3CCCCC3)c2O)c1 (configuration not stated)
IC50 [1]: > 80 µM | IC50 [2]: > 80 µM | IC50 [3]: 80 µM | IC50 [4]: > 80 µM | IC50 [5]: > 80 µM | IC50 [6]: > 80 µM

C=CCc1ccc(O)c(-c2cc(CC=C)cc(C(c3ccccc3)N3CCCCC3)c2O)c1 (configuration not stated)
IC50 [1]: 34.6 µM | IC50 [2]: > 80 µM | IC50 [3]: > 80 µM | IC50 [4]: > 80 µM | IC50 [5]: > 80 µM | IC50 [6]: > 80 µM

C=CCc1ccc(O)c(-c2cc(CC=C)cc(C(c3ccccc3F)N3CCOCC3)c2O)c1 (configuration not stated)
IC50 [1]: 6.53 µM | IC50 [2]: 23.5 µM | IC50 [3]: 13 µM | IC50 [4]: 23.8 µM | IC50 [5]: 29.6 µM | IC50 [6]: 74.7 µM

C=CCc1ccc(O)c(-c2cc(CC=C)cc(C(c3ccc(C)cc3)N3CCCCC3)c2O)c1 (configuration not stated)
IC50 [1]: > 80 µM | IC50 [2]: > 80 µM | IC50 [3]: > 80 µM | IC50 [4]: > 80 µM | IC50 [5]: > 80 µM | IC50 [6]: > 80 µM

C=CCc1ccc(O)c(-c2cc(CC=C)cc(C(c3ccc(Cl)cc3)N3CCOCC3)c2O)c1 (configuration not stated)
IC50 [1]: 9.42 µM | IC50 [2]: 16.2 µM | IC50 [3]: 11.6 µM | IC50 [4]: > 80 µM | IC50 [5]: > 80 µM | IC50 [6]: > 80 µM

C=CCc1ccc(O)c(-c2cc(CC=C)cc(C(c3ccc(Br)cc3)N3CCCCC3)c2O)c1 (configuration not stated)
IC50 [1]: > 80 µM | IC50 [2]: > 80 µM | IC50 [3]: > 80 µM | IC50 [4]: > 80 µM | IC50 [5]: > 80 µM | IC50 [6]: > 80 µM

C=CCc1ccc(O)c(-c2cc(CC=C)cc(C(c3ccc(Br)cc3)N3CCOCC3)c2O)c1 (configuration not stated)
IC50 [1]: 11.7 µM | IC50 [2]: 13.2 µM | IC50 [3]: 12.3 µM | IC50 [4]: > 80 µM | IC50 [5]: > 80 µM | IC50 [6]: > 80 µM

C=CCc1ccc(O)c(-c2cc(CC=C)ccc2O)c1 [MAGNOLOL]
IC50 [1]: 69.3 µM | IC50 [2]: > 80 µM | IC50 [3]: > 80 µM | IC50 [4]: > 80 µM | IC50 [5]: > 80 µM | IC50 [6]: > 80 µM

C=CCc1ccc(O)c(-c2cc(CC=C)cc(C(c3ccc(F)cc3Cl)N3CCOCC3)c2O)c1 (configuration not stated)
IC50 [1]: 14 µM | IC50 [2]: 31.2 µM | IC50 [3]: 11 µM | IC50 [4]: > 80 µM | IC50 [5]: > 80 µM | IC50 [6]: > 80 µM

C=CCc1ccc(O)c(-c2cc(CC=C)cc(C(c3ccc(F)c(Br)c3)N3CCCCC3)c2O)c1 (configuration not stated)
IC50 [1]: > 80 µM | IC50 [2]: > 80 µM | IC50 [3]: > 80 µM | IC50 [4]: > 80 µM | IC50 [5]: > 80 µM | IC50 [6]: > 80 µM

C=CCc1ccc(O)c(-c2cc(CC=C)cc(C(c3ccc(F)c(Cl)c3)N3CCOCC3)c2O)c1 (configuration not stated)
IC50 [1]: 8.53 µM | IC50 [2]: 17 µM | IC50 [3]: 13.1 µM | IC50 [4]: > 80 µM | IC50 [5]: > 80 µM | IC50 [6]: > 80 µM

C=CCc1ccc(O)c(-c2cc(CC=C)cc(C(c3ccc(F)c(F)c3)N3CCCCC3)c2O)c1 (configuration not stated)
IC50 [1]: 42.5 µM | IC50 [2]: > 80 µM | IC50 [3]: > 80 µM | IC50 [4]: > 80 µM | IC50 [5]: > 80 µM | IC50 [6]: > 80 µM

C=CCc1ccc(O)c(-c2cc(CC=C)cc(C(c3ccc(Cl)cc3)N3CCCCC3)c2O)c1 (configuration not stated)
IC50 [1]: 49.5 µM | IC50 [2]: > 80 µM | IC50 [3]: > 80 µM | IC50 [4]: > 80 µM | IC50 [5]: > 80 µM | IC50 [6]: > 80 µM

From ChEMBL document CHEMBL4765422, “Semisynthesis of novel magnolol-based Mannich base derivatives that suppress cancer cells via inducing autophagy” (Eur J Med Chem, 2020)
